SMILES strings stand for the structures.

The target in this test is T1, Acetylcholinesterase (AChE) (Electrophorus electricus, UniProt O42275).
T1 construct: purchased Sigma Aldrich type VI-S
T1 sequence (O42275 24-633): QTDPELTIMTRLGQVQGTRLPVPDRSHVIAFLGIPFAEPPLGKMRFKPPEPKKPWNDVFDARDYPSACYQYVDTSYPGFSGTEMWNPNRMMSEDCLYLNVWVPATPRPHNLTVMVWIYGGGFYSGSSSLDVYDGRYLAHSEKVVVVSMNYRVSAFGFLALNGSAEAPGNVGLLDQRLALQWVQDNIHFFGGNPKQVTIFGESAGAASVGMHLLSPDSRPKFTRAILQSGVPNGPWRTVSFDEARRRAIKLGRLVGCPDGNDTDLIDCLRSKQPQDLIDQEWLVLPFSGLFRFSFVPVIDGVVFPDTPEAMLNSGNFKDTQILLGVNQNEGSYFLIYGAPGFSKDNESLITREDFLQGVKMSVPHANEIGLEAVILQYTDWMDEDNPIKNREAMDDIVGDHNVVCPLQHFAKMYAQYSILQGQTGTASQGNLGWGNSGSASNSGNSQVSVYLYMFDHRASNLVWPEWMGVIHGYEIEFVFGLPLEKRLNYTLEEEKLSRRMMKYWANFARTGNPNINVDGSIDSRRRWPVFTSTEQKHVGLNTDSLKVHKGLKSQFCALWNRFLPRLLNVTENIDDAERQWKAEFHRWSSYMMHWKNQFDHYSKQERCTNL
The experiment in a line: In vitro anti-acetylcholinesterase assay (Ellman's method). The conditions noted are these: read-out: AChE Inhibition (IC50). The class given is biochemical. The source says:
In vitro enzyme assay reagents were purchased as previously described. Acetylcholinesterase (AChE) from Electrophorus electricus type VI-S lyophilized powder (137 units/mg) was acquired from Sigma Aldrich (St. Louis, MO, USA). Substrate acetylthiocholine iodide (ATCl) and sodium phosphate monobasic and dibasic anhydrous used for buffer preparation were obtained from Wako Pure Chemical (Osaka, Japan). Coloring reagent 5,5′-dithio-bis-(2-nitrobenzoic acid) (DTNB) was acquired from Nacalai Tesque (Kyoto, Japan). […] All other reagents acquired from commercial sources were of analytical grade.
The plant fractions and isolated compounds were evaluated for their anti-AChE potential in triplicate based on the Ellman’s method described previously.
A general note: Ellman's reagent forms a yellow product with free thiols.
What is called IC50 is the concentration needed to halve the response being measured. `CC(C)=CCC/C(C)=C/Cc1c(C2CC(=O)c3c(O)cc(O)c(CC=C(C)C)c3O2)ccc(O)c1O` (centres unmarked) [Compound 1, solophenol A]: the half-inhibitory concentration (IC50) is 1000 nM.

`CC(C)=CCC/C(C)=C/Cc1c([C@@H]2CC(=O)c3c(O)cc(O)cc3O2)ccc(O)c1O` [Compound 2, nymphaeol B]: the half-inhibitory concentration (IC50) turned out to be 33000 nM.

`CC(C)=CCCC(C)=CCc1c(O)cc2c(c1O)C(=O)CC(c1cc(O)cc(O)c1)O2` (centres unmarked) [Compound 3, schizolaenone C]: the 50% inhibitory concentration (IC50) is 6800 nM.

As to `CC/C=C\C/C=C\C/C=C\CCCCCCCc1cccc(O)c1C(=O)O` [Compound 4, 6-heptadeca-8Z,11Z,14Z-trienyl salicylic acid], the IC50 was 2400 nM.

Turning to `CCCC/C=C\C/C=C\CCCCCCCCc1cccc(O)c1C(=O)O` [Compound 5, 6-heptadeca-9Z,12Z-dienyl salicylic acid], the IC50 amounted to 540 nM.

For the origin of these results see PMC9102781 (Molecules, 2022).
